Test results from PubChem BioAssay (NCI).
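Where inhibition never reached the appropriate level, the endpoint shown equals the highest concentration tested. Otherwise, values were interpolated linearly from a five-concentration, 48-hour dose response in 96-well plates. TGI: total growth inhibition.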

Assays:
Experiment in all cases: NCI-60 cell line screen, 48 h
HS 578T breast = tested on: HS 578T breast
NCI-H23 lung = tested on: NCI-H23 lung
OVCAR-4 ovarian = tested on: OVCAR-4 ovarian
OVCAR-3 ovarian = tested on: OVCAR-3 ovarian
COLO 205 colon = tested on: COLO 205 colon
UO-31 renal = tested on: UO-31 renal
NCI/ADR-RES ovarian = tested on: NCI/ADR-RES ovarian
MOLT-4 leukemia = tested on: MOLT-4 leukemia
CCRF-CEM leukemia = tested on: CCRF-CEM leukemia
HOP-92 NSCLC = tested on: HOP-92 NSCLC
MDA-MB-231 breast = tested on: MDA-MB-231 breast
HOP-62 NSCLC = tested on: HOP-62 NSCLC
T-47D breast = tested on: T-47D breast
SW-620 colon = tested on: SW-620 colon
HL-60(TB) leukemia = tested on: HL-60(TB) leukemia
MCF7 breast = tested on: MCF7 breast
SK-MEL-28 melanoma = tested on: SK-MEL-28 melanoma
KM12 colon = tested on: KM12 colon
HCT-15 colon = tested on: HCT-15 colon
MALME-3M melanoma = tested on: MALME-3M melanoma
SK-MEL-5 melanoma = tested on: SK-MEL-5 melanoma
LOX IMVI melanoma = tested on: LOX IMVI melanoma
SNB-75 CNS = tested on: SNB-75 CNS
TK-10 renal = tested on: TK-10 renal
K-562 leukemia = tested on: K-562 leukemia
SN12C renal = tested on: SN12C renal
SR leukemia = tested on: SR leukemia
SNB-19 CNS = tested on: SNB-19 CNS
SK-OV-3 ovarian = tested on: SK-OV-3 ovarian
M14 melanoma = tested on: M14 melanoma
NCI-H460 lung = tested on: NCI-H460 lung
786-0 renal = tested on: 786-0 renal
NCI-H522 lung = tested on: NCI-H522 lung
HCC-2998 colon = tested on: HCC-2998 colon
DU-145 prostate = tested on: DU-145 prostate
MDA-N = tested on: MDA-N
SF-295 CNS = tested on: SF-295 CNS
ACHN renal = tested on: ACHN renal
HCT-116 colon = tested on: HCT-116 colon
UACC-257 melanoma = tested on: UACC-257 melanoma
HT29 colon = tested on: HT29 colon
U251 CNS = tested on: U251 CNS
CAKI-1 renal = tested on: CAKI-1 renal
EKVX NSCLC = tested on: EKVX NSCLC
A549 NSCLC = tested on: A549 NSCLC
RXF 393 renal = tested on: RXF 393 renal
SF-268 CNS = tested on: SF-268 CNS
OVCAR-5 ovarian = tested on: OVCAR-5 ovarian
IGROV1 ovarian = tested on: IGROV1 ovarian
A498 renal = tested on: A498 renal
OVCAR-8 ovarian = tested on: OVCAR-8 ovarian
MDA-MB-435 = tested on: MDA-MB-435
PC-3 prostate = tested on: PC-3 prostate
BT-549 breast = tested on: BT-549 breast
UACC-62 melanoma = tested on: UACC-62 melanoma
NCI-H226 lung = tested on: NCI-H226 lung
SK-MEL-2 melanoma = tested on: SK-MEL-2 melanoma
SF-539 CNS = tested on: SF-539 CNS
RPMI-8226 leukemia = tested on: RPMI-8226 leukemia

Measured: TGI

CN(CCNC(=O)c1[nH]nc2c1Cc1ccccc1-2)CCNC(=O)c1[nH]nc2c1Cc1ccccc1-2
41.3 µM: U251 CNS
33.7 µM: TK-10 renal
35.3 µM: MDA-MB-435
45.2 µM: MOLT-4 leukemia
32 µM: DU-145 prostate
34.6 µM: HOP-92 NSCLC
32.4 µM: OVCAR-4 ovarian
49.4 µM: SW-620 colon
35.2 µM: SK-MEL-28 melanoma
36.8 µM: A498 renal
31 µM: SF-295 CNS | BT-549 breast
30.8 µM: SK-MEL-5 melanoma
34.5 µM: MALME-3M melanoma
33.6 µM: NCI-H23 lung | KM12 colon
28.9 µM: OVCAR-3 ovarian
29.4 µM: HOP-62 NSCLC | HCC-2998 colon
31.9 µM: COLO 205 colon
40.7 µM: HL-60(TB) leukemia
33.4 µM: NCI-H522 lung
32.3 µM: RXF 393 renal
34.7 µM: UO-31 renal
31.8 µM: SN12C renal | IGROV1 ovarian
34.3 µM: UACC-257 melanoma
> 100 µM: NCI/ADR-RES ovarian
32.8 µM: HCT-116 colon
38.5 µM: LOX IMVI melanoma
39.8 µM: A549 NSCLC
61.9 µM: HS 578T breast
31.1 µM: SK-OV-3 ovarian
32.7 µM: HT29 colon
31.4 µM: SNB-19 CNS
38.4 µM: EKVX NSCLC
33.5 µM: NCI-H460 lung | OVCAR-5 ovarian
41.7 µM: OVCAR-8 ovarian
44.9 µM: MCF7 breast
31.2 µM: MDA-N
34.4 µM: M14 melanoma
35.7 µM: PC-3 prostate
37.5 µM: UACC-62 melanoma
38.1 µM: K-562 leukemia
35.8 µM: NCI-H226 lung
26.1 µM: SNB-75 CNS
33.2 µM: HCT-15 colon
39.6 µM: SF-268 CNS
31.3 µM: CAKI-1 renal
42.9 µM: CCRF-CEM leukemia | SR leukemia
39.3 µM: MDA-MB-231 breast
32.5 µM: ACHN renal
30.6 µM: 786-0 renal
44.3 µM: T-47D breast

C[C@]12CCC3c4ccc(O)cc4CC[C@H]3C1CC(=O)N(CCN1CCCC1)C2=O (stereo not given in full)
> 10 µM: SK-MEL-2 melanoma | HS 578T breast | NCI-H23 lung | OVCAR-4 ovarian | OVCAR-3 ovarian | COLO 205 colon | UO-31 renal | NCI/ADR-RES ovarian | MOLT-4 leukemia | CCRF-CEM leukemia | MDA-MB-231 breast | HOP-62 NSCLC | T-47D breast | SW-620 colon | HL-60(TB) leukemia | MCF7 breast | SK-MEL-28 melanoma | KM12 colon | HCT-15 colon | MALME-3M melanoma | SF-539 CNS | SK-MEL-5 melanoma | LOX IMVI melanoma | SNB-75 CNS | TK-10 renal | K-562 leukemia | SN12C renal | SR leukemia | SNB-19 CNS | SK-OV-3 ovarian | M14 melanoma | NCI-H460 lung | 786-0 renal | HCC-2998 colon | DU-145 prostate | MDA-N | SF-295 CNS | ACHN renal | HCT-116 colon | RPMI-8226 leukemia | UACC-257 melanoma | HT29 colon | U251 CNS | CAKI-1 renal | EKVX NSCLC | A549 NSCLC | RXF 393 renal | SF-268 CNS | OVCAR-5 ovarian | IGROV1 ovarian | A498 renal | OVCAR-8 ovarian | MDA-MB-435 | PC-3 prostate | BT-549 breast | UACC-62 melanoma | NCI-H226 lung

O=P(O)(OP(=O)(O)c1ccccc1)c1ccccc1 (tested in a mixture with another compound)
> 100 µM: SK-MEL-2 melanoma | HS 578T breast | NCI-H23 lung | OVCAR-4 ovarian | OVCAR-3 ovarian | COLO 205 colon | UO-31 renal | NCI/ADR-RES ovarian | CCRF-CEM leukemia | HOP-92 NSCLC | MDA-MB-231 breast | HOP-62 NSCLC | T-47D breast | SW-620 colon | HL-60(TB) leukemia | MCF7 breast | SK-MEL-28 melanoma | KM12 colon | HCT-15 colon | MALME-3M melanoma | SK-MEL-5 melanoma | LOX IMVI melanoma | SNB-75 CNS | TK-10 renal | K-562 leukemia | SN12C renal | SR leukemia | SNB-19 CNS | SK-OV-3 ovarian | M14 melanoma | NCI-H460 lung | 786-0 renal | NCI-H522 lung | HCC-2998 colon | DU-145 prostate | MDA-N | SF-295 CNS | ACHN renal | HCT-116 colon | RPMI-8226 leukemia | UACC-257 melanoma | HT29 colon | U251 CNS | CAKI-1 renal | EKVX NSCLC | A549 NSCLC | RXF 393 renal | SF-268 CNS | OVCAR-5 ovarian | IGROV1 ovarian | A498 renal | OVCAR-8 ovarian | MDA-MB-435 | PC-3 prostate | BT-549 breast | UACC-62 melanoma | NCI-H226 lung
